Test [1] addresses T1, Adrenergic alpha1A (Homo sapiens, UniProt P35348).
T1 sequence (P35348 1-466): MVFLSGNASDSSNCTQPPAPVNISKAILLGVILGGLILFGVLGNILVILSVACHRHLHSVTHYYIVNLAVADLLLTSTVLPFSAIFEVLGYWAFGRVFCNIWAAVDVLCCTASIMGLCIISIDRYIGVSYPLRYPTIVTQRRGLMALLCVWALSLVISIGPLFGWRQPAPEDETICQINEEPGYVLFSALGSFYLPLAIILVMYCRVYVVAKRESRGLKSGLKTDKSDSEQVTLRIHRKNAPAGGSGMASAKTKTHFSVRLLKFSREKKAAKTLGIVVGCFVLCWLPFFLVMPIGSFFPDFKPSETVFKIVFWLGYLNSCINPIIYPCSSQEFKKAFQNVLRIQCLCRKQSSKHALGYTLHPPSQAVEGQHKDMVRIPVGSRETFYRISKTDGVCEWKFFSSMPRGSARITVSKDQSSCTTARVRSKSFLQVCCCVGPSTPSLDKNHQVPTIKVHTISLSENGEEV
The test can be described thus: PDSP binding screen. Conditions: for inhibition at 10 µM: read-out: Ki (nM) or % inhibition at 10 µM: alpha1A.

Test [2] addresses Dopamine D2 (Homo sapiens, UniProt P14416). The test can be described thus: PDSP binding screen.
The target of test [3] is Adrenergic beta3 (Homo sapiens, UniProt P13945). The test can be described thus: PDSP binding screen. Conditions: for inhibition at 10 µM: read-out: Ki (nM) or % inhibition at 10 µM: beta3.
Chain of Adrenergic beta3 (P13945 whole entry): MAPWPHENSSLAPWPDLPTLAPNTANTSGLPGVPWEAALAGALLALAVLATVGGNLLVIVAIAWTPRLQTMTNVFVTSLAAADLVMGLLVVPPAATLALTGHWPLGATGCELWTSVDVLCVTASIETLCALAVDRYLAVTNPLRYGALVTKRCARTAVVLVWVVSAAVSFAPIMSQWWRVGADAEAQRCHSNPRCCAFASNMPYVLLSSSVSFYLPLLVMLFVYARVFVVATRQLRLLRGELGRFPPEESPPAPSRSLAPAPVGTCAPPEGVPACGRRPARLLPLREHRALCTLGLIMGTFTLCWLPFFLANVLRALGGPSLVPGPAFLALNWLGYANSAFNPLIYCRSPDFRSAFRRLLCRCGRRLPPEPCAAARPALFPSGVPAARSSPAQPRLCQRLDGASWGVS
In test [4] the target is Histamine H1 (Homo sapiens, UniProt P35367). The test can be described thus: PDSP binding screen.
Chain of Histamine H1 (P35367 whole entry): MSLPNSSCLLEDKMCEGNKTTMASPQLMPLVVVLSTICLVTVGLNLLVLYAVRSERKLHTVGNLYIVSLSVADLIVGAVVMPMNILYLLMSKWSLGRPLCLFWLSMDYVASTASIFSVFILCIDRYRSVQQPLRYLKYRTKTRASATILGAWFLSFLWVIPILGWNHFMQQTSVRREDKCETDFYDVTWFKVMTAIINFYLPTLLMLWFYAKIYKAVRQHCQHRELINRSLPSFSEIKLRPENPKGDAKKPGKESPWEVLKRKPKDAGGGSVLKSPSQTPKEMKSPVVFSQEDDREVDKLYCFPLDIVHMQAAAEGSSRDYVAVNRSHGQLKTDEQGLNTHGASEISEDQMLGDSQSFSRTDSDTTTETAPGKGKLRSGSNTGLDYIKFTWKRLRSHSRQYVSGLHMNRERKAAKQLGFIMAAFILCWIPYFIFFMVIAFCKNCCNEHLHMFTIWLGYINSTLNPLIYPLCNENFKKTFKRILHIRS
The target of test [5] is Adrenergic beta2 (Homo sapiens, UniProt P07550). The test can be described thus: PDSP binding screen. Conditions: for inhibition at 10 µM: read-out: Ki (nM) or % inhibition at 10 µM: beta2.
Chain of Adrenergic beta2 (P07550 whole entry): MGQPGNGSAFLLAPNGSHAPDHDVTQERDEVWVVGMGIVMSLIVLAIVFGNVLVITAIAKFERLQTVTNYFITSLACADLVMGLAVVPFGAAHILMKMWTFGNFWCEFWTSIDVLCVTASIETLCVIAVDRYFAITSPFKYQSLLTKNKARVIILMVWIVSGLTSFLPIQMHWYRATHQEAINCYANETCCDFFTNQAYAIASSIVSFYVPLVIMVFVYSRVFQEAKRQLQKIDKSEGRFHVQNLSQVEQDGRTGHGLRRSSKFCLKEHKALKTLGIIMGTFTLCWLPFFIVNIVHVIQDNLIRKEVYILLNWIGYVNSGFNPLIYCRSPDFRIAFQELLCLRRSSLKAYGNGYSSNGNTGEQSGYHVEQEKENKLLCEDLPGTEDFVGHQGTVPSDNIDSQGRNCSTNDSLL
Test [6] addresses T2, Adrenergic alpha2B (Homo sapiens, UniProt P18089).
T2 sequence (P18089 1-450): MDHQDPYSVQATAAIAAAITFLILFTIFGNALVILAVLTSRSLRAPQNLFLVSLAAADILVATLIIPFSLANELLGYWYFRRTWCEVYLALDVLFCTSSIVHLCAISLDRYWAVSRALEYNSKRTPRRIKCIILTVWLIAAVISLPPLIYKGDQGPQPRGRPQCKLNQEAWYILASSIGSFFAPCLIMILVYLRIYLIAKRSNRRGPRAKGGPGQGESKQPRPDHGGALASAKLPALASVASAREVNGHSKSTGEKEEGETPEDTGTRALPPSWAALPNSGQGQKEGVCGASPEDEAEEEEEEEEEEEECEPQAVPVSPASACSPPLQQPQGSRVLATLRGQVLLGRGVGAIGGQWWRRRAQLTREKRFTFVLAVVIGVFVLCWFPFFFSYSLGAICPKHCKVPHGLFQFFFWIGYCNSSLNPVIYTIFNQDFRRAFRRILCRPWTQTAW
The test can be described thus: PDSP binding screen.

The target of test [7] is T3, Dopamine D4 (Homo sapiens, UniProt P21917).
T3 sequence (P21917 1-419): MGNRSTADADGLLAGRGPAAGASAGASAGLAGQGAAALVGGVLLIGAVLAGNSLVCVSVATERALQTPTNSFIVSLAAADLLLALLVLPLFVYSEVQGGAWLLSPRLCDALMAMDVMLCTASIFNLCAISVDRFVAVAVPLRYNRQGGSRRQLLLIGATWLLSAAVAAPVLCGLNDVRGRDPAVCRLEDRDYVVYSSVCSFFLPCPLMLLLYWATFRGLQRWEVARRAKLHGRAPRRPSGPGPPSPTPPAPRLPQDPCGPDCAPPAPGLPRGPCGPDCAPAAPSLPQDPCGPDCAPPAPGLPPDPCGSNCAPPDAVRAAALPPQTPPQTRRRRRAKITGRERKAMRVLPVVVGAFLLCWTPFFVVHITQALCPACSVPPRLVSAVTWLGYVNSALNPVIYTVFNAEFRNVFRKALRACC
The test can be described thus: PDSP binding screen.

The target in test [8] is T4, Serotonin 5-HT1A (Homo sapiens, UniProt P08908).
T4 sequence (P08908 1-422): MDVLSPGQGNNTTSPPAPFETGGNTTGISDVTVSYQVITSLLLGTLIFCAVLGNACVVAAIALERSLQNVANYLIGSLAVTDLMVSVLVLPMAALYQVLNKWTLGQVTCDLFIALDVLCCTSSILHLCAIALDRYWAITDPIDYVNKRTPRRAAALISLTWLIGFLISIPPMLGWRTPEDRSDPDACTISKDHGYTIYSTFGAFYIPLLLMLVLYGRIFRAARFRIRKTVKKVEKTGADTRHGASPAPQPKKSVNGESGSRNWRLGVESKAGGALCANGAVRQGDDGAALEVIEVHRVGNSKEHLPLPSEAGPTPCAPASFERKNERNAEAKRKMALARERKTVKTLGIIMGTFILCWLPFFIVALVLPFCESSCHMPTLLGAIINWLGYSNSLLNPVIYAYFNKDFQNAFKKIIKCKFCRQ
The test can be described thus: PDSP binding screen.

For test [9], the target named is T5, human D2 receptors (Homo sapiens, UniProt P14416).
T5 construct: expressed in transfected cells; host or cells: HEK293
T5 sequence (P14416 whole entry): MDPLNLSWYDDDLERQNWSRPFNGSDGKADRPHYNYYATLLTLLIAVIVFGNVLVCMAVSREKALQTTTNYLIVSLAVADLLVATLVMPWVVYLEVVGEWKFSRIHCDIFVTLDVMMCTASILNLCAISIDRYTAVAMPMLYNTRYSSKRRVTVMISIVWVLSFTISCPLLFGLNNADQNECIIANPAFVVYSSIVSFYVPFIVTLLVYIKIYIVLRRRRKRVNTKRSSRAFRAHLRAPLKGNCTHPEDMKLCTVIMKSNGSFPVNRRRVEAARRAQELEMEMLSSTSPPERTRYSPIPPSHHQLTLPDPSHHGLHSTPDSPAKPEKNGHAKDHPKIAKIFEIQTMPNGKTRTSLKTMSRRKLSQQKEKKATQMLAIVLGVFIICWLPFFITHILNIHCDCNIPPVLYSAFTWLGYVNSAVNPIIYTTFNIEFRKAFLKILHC
The test can be described thus: Radioligand binding assay with [125I]IABN, D2 receptor. On the procedure: Two different assays were used to evaluate the properties of the analogs described above. The receptor binding affinity was measured by radioligand binding assays using [^125I]IABN with D2 or D3 receptors highly expressed HEK293 cells. The functional activity of the analogs was determined using a β-arrestin recruitment assay. […] The results of the antagonist mode assay are reported as IC50 values.
Ki values for D2 and D3 receptors were measured using [^125I]IABN in human D2 and D3 receptors expressed in HEK cells, respectively. A filtration binding assay was used to characterize membrane-associated receptor binding properties. The details for the procedures were described in the literature.

The target of test [10] is T6, Serotonin 5-HT2C (Homo sapiens, UniProt P28335).
T6 sequence (P28335 33-458): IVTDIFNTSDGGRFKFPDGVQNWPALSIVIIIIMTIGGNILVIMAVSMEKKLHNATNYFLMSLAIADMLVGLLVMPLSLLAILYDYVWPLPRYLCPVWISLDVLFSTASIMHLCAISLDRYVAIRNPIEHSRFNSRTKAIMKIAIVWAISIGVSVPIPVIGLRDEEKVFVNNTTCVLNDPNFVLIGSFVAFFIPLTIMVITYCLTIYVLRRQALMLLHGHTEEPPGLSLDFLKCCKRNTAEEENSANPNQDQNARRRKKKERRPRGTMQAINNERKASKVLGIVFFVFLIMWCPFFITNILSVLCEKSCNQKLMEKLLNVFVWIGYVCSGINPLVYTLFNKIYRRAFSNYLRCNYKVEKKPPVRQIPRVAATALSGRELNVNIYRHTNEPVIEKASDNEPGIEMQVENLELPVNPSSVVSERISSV
The test can be described thus: PDSP binding screen.

[11] abbreviates: [125I]IABN, D2 receptors expressed in HEK cells, mean ± SEM, three experiments, HCl salts, read-out: Ki ± SEM (nM) D2.

Structures are written as SMILES. Read-outs that look alike come from different tables or passages of the source.

Chain of Dopamine D2 (P14416 whole entry): as the sequence (P14416 whole entry) above

A word on the inhibition: it is the change of the read-out against control, counted positive when it falls. As a reminder, the Ki is a measure of affinity in units of concentration, obtained from inhibition or displacement. `CCN(CCCNC(=O)c1ccc(-c2cccs2)cc1)CCNC(=O)c1cc(Br)cc(OC)c1OC` [9a, 5-Bromo-N-(2-(ethyl(3-(4-(thiophen-2-yl)benzamido)propyl)amino)ethyl)-2,3-dimethoxybenzamide]: in test [1], the inhibition at 10 µM was below 50%. The Ki turned out to be 232 nM in test [2]; 1500 nM in [3]; 1490 nM in test [4]; 669 nM in test [5]; 235 nM in test [6]; 579 nM in test [7]. Besides, the Ki was determined as 1740 nM in [8], 169 ± 4 nM in test [9] and 577 nM in [10].

For the molecule `CCCN(CCCNC(=O)c1ccc(-c2cccs2)cc1)CCNC(=O)c1cc(Br)cc(OC)c1OC` [20a, 5-Bromo-2,3-dimethoxy-N-(2-(propyl(3-(4-(thiophen-2-yl)benzamido)propyl)amino)ethyl)benzamide], the Ki in [1] was determined as 2210 nM; in [2] it was 185 nM; in test [3], 1390 nM; in test [4], 1360 nM; in [5], 5830 nM; in test [6] it was 672 nM. Also, the Ki in [7] was found to be 938 nM; in test [8] it was 194 nM; in test [9] (setting [11]), 259 ± 23 nM; in [10] it was 2020 nM.

In the case of `CCN(CCCNC(=O)c1ccc2ccccc2c1)CCNC(=O)c1cc(Br)cc(OC)c1OC` [21a, N-(3-((2-(5-Bromo-2,3-dimethoxybenzamido)ethyl)(ethyl)amino)propyl)-2-naphthamide], the inhibition at 10 µM in [1] and in [5] was below 50% in each case. The Ki came out at 216 nM in [2]; 4530 nM in test [3]; 1510 nM in test [4]; 577 nM in [6]; 377 nM in [7]; 971 nM in test [8]. The results for the Ki in test [9] (setting [11]) and in test [10] were 169 ± 12 nM and 1330 nM, respectively.

`CCN(CCCNC(=O)c1ccc(-c2ccncc2)cc1)CCNC(=O)c1cc(Br)cc(OC)c1OC` [21c, 5-Bromo-N-(2-(ethyl(3-(4-(pyridin-4-yl)benzamido)propyl)amino)ethyl)-2,3-dimethoxybenzamide]: the inhibition at 10 µM in [1], in test [3] and in test [5] was below 50% throughout. In addition, the Ki in test [2] came to 74 nM; in [4], 591 nM; in test [6] it was 909 nM; in test [7], 2180 nM; in test [8], 509 nM; in [9] (setting [11]) it was 107 ± 5 nM. The affinity in test [10] corresponds to a Ki of 1500 nM.

As for `CCN(CCCNC(=O)c1cc2ccccc2[nH]1)CCNC(=O)c1cc(Br)cc(OC)c1OC` [21d, N-(3-((2-(5-Bromo-2,3-dimethoxybenzamido)ethyl)(ethyl)amino)propyl)-1H-indole-2-carboxamide], the inhibition at 10 µM in [1], in test [3] and in test [5] was below 50% throughout. In addition, the Ki in [2] amounted to 89 nM; in [4], 0.95 nM; in test [6], 386 nM; in test [7], 239 nM; in test [8], 692 nM; in [9] (setting [11]), 148 ± 9 nM. In [10], this molecule displayed a Ki of 2100 nM.

In the case of `CCN(CCCNC(=O)c1cn2ccccc2n1)CCNC(=O)c1cc(Br)cc(OC)c1OC` [21e, N-(3-((2-(5-Bromo-2,3-dimethoxybenzamido)ethyl)(ethyl)amino)propyl)imidazo[1,2-a]pyridine-2-carboxamide], the inhibition at 10 µM in test [1], in test [2] (read-out: Ki (nM) or % inhibition at 10 µM: D2), in [5] and in test [7] (read-out: Ki (nM) or % inhibition at 10 µM: D4) was below 50% in each case. Also, the Ki was 5560 nM in test [3]; 675 nM in test [4]; 2830 nM in [6]; 575 nM in [8]; 142 ± 16 nM in test [9] (setting [11]); 5780 nM in [10].

In the case of `CCN(CCCNC(=O)c1ccc(-c2ccsc2)cc1)CCNC(=O)c1cc(Br)cc(OC)c1OC` [21g, 5-Bromo-N-(2-(ethyl(3-(4-(thiophen-3-yl)benzamido)propyl)amino)ethyl)-2,3-dimethoxybenzamide], the Ki in test [1] came to 2110 nM; in test [2], 170 nM; in test [3], 2960 nM; in test [4], 102 nM; in test [5] it was 616 nM; in test [6] it was 571 nM. For the same molecule, the Ki in [7] is 582 nM; in test [8], 3310 nM; in test [9] (setting [11]), 312 ± 18 nM; in [10], 354 nM.

On to `CCN(CCCNC(=O)c1ccsc1)CCNC(=O)c1cc(Br)cc(OC)c1OC` [21i, N-(3-((2-(5-Bromo-2,3-dimethoxybenzamido)ethyl)(ethyl)amino)propyl)thiophen-e-3-carboxamide], for which the inhibition at 10 µM in [1] and in test [5] was below 50% in each case. Moreover, the Ki is 40 nM in test [2]; above 10000 nM in test [3]; 84 nM in [4]; 2950 nM in [6]; 514 nM in test [7]; 245 nM in test [8]. Further, the Ki in test [9] (setting [11]) came out at 304 ± 7 nM; in test [10], 9730 nM.

Values taken from article PMC9820167, “Design and Synthesis of Conformationally Flexible Scaffold as Bitopic Ligands for Potent D3-Selective Antagonists” (International Journal of Molecular Sciences, 2022).
